We go through 43 compounds from patent publication US20110009403A1, “2-MORPHOLINYLPURINES AS INHIBITORS OF PI3K” (S*BIO Pte Ltd., priority 2007, published 2011).

Each structure is given as a SMILES string.

Assay [1] concerns the target T1, PI3K p110α/p85 (Homo sapiens, UniProt P42336).
T1 construct: made in house
Put plainly: PI3K assay ([γ33P]ATP, PtdIns/PtdSer coated plates). It counts as biochemical. Particulars: 2 μM ATP, 1 hour at RT; read-out: IC50 (PI3Kα). The protocol: Recombinant PI3K p110α/p85 was prepared in-house. Phosphatidylinositol (PtdIns), phosphotidylserine (PtdSer) and all other unspecified chemicals were purchased from Sigma-Aldrich. [γ^33P]ATP and Optiphase scintillant were obtained from Perkin Elmer.
Assays were performed in a final assay volume of 25 μL in 384-well Maxisorp plates (Nunc). Compounds were tested at 8 concentrations in 3-fold serial dilution, generally starting from 10 μM. Maxisorp plates were coated with 20 μL/well of a 1:1 mixture of PtdIns and PtdSer [0.1 mg/mL each dissolved in chloroform:ethanol (3:7)] and left overnight in a fume hood at room temperature (RT) to dry.
The enzyme reaction was created by pipetting 5 μL/well of compound (in 2.5% DMSO), 10 μL/well of enzyme (0.5 μg/mL p110α+1 μg/mL p85), and 10 μL/well of 5 μM ATP with 5 μCi/mL [γ^33P]ATP in assay buffer (final concentrations: 0.2 μg/mL p110α, 2 μM ATP, […] [γ^33P]ATP in 1× assay buffer: 100 mM Tris-HCl pH 7.0, 200 mM NaCl, 8 mM MgCl2). The reaction was incubated for 1 hour at RT and terminated with 30 μL/well of 50 mM EDTA solution. The plate was then washed twice with TBS, dried, and added with 30 μL/well of scintillant before it was counted in a MicroBeta Trilux.

Assay [2] concerns the target mTOR (Homo sapiens, UniProt P42345). Nature of the assay: mTOR assay (phosphorylation of 4eBP1, [γ33P]-ATP filter plate). Type of assay: biochemical. Particulars: 10 μM ATP, 1 hour at room temperature. The protocol:
Truncated mTOR kinase and His-tagged 4eBP1 were produced in-house. [γ^33P]-ATP was purchased from Amersham (GE Healthcare). All chemicals, unless otherwise stated, were from Sigma-Aldrich.
Phosphorylation assays were initially performed in a final volume of 20 μL in 384-well polypropylene plate (Greiner). Compounds were typically tested over the range from 100 μM to 0.006 μM, in 8 step dilutions, in duplicate. 10 μL/well of 2× Enzyme-Substrate solution (1.5 μg/mL mTOR, 40 μg/mL 4eBP1 in 1× assay buffer: 10 mM Hepes pH 7.5, 50 mM NaCl and 10 mM MnCl2) were first added to the sample plate containing 1 μL/well of test compound in neat DMSO. The reaction was initiated by adding 10 μL/well of 20 μM ATP solution (final assay concentration 10 μM ATP and 0.4 μCi/well of [γ^33P]-ATP). After 1 hour incubation at room temperature, the reaction was terminated with 40 μL/well of 20 mM EDTA/1 mM ATP solution.
50 μL/well of the stopped reaction mix was then transferred to 384-well MultiScreenHTS-PH filter plate (Millipore) pre-added with 50 μL/well of 1% phosphoric acid. The plate was washed 4 times with 120 μL/well of 0.5% phosphoric acid via vacuum filtration. Finally, 10 μL/well of Optiphase™ SuperMix liquid scintillation cocktail (Perkin Elmer) was added. After minimum 1 hour of incubation, counting was performed in a Wallac MicroBeta TriLux scintillation counter using coincidence counting mode with crosstalk correction.

Chain of mTOR (P42345 1382-2549 limits assumed): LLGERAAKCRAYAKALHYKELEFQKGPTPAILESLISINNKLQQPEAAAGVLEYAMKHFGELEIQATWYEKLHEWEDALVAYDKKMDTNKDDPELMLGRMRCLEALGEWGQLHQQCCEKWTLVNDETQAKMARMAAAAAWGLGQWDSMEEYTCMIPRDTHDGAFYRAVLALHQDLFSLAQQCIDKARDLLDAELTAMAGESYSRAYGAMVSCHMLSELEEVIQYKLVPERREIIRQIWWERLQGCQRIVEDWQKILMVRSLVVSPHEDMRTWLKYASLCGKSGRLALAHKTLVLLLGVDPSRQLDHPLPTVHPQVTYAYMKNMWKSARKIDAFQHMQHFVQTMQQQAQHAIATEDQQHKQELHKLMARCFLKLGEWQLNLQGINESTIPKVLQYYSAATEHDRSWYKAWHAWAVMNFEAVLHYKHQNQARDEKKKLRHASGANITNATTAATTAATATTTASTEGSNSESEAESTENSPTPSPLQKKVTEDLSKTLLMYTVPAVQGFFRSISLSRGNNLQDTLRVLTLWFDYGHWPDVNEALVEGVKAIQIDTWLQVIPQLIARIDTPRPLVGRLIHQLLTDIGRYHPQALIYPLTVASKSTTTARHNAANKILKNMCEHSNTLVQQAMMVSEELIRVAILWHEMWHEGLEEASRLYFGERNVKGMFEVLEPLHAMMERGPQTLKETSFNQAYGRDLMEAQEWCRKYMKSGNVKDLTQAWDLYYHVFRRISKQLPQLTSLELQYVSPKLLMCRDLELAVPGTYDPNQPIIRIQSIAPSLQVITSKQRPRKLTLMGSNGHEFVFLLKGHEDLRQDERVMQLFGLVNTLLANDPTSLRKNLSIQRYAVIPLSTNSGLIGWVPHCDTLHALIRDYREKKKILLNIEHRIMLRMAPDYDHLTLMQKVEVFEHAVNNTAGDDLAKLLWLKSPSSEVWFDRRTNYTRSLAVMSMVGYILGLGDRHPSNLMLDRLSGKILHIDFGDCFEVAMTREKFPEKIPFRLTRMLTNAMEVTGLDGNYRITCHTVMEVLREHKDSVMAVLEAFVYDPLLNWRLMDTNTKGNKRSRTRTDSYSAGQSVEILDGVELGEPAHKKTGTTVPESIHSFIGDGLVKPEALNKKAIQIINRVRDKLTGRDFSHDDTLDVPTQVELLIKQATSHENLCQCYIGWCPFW
T1 sequence (P42336 whole entry): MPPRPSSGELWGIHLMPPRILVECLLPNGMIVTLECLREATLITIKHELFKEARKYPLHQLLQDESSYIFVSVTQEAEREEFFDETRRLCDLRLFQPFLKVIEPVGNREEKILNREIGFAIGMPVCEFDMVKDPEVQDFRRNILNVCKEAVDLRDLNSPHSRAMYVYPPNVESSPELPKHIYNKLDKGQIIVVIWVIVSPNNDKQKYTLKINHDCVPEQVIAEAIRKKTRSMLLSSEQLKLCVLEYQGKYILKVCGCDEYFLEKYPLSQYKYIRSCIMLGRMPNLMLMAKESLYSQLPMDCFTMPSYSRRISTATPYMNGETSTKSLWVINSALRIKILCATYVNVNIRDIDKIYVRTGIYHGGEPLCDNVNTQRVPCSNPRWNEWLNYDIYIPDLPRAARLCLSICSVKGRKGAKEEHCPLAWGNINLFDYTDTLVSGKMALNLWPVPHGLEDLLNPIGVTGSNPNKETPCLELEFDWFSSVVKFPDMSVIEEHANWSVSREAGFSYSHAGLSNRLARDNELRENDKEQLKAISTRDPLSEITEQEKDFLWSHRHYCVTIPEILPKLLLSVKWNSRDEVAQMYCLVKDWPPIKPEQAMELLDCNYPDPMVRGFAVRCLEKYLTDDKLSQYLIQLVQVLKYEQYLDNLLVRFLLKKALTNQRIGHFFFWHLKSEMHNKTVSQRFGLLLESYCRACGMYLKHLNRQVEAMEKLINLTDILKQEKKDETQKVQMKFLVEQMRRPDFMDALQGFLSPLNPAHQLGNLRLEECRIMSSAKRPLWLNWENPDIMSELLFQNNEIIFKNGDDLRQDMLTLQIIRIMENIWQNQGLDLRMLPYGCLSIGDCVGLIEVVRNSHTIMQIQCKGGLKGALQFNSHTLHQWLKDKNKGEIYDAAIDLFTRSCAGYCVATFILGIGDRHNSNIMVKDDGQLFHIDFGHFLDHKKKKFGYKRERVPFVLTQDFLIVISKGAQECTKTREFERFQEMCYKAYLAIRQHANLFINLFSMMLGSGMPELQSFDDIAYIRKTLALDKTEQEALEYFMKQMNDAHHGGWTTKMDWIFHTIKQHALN
T1 sequence (P27986 whole entry partner): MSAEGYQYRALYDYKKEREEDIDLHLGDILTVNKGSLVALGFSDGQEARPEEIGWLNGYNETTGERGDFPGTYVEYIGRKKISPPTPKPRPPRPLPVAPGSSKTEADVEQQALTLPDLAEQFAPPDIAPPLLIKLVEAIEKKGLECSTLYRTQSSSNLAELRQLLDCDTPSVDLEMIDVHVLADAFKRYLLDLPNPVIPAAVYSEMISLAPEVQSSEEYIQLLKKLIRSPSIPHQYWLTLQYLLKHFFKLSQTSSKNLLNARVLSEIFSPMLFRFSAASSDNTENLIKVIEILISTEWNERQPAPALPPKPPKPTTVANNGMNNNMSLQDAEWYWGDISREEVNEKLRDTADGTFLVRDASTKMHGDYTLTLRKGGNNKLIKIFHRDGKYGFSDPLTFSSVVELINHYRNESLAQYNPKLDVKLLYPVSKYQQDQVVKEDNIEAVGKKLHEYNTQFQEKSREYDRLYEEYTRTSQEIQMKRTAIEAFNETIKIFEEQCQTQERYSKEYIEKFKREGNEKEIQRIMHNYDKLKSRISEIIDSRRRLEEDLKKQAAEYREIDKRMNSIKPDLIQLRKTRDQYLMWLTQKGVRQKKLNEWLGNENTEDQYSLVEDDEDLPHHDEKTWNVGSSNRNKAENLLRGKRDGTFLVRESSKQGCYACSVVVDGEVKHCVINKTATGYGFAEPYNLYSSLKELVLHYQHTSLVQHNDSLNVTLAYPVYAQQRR

The IC50 is the concentration at which inhibition is half-maximal. With `CCSc1nc2c(-c3cccc(O)c3)nc(N3CCOCC3)nc2n1C(C)CC` (centres unmarked) [Compound 119], the IC50 in assay [1] and in assay [2] was less than 1 µM in each case.
Regarding `Oc1cccc(-c2nc(N3CCOCC3)nc3c2ncn3C2CCCCO2)c1` (centres unmarked) [Compound 57], the IC50 in assay [1] and in assay [2] was less than 1 µM throughout.
In the case of `CCNc1ccc(Cn2cnc3c(-c4cccc(O)c4)nc(N4CCOCC4)nc32)cc1` [Compound 34], the concentration for half-maximal inhibition (IC50) in assay [1] was less than 1 µM; in assay [2] it was 1 to 5 µM.
The corresponding values for `COc1cc(Cn2cnc3c(-c4cccc(O)c4)nc(N4CCOCC4)nc32)cc(OC)c1` [Compound 14] are less than 1 µM and less than 1 µM.
In the case of `CC(=O)Nc1cccc(-c2nc(N3CCOCC3)nc3c2ncn3Cc2ccccc2)c1` [Compound 4], the IC50 in assay [1] and in assay [2] was more than 5 µM each time.
For `O=C(Cn1cnc2c(-c3cccc(O)c3)nc(N3CCOCC3)nc21)Nc1ccccc1` [Compound 89], the IC50 in assay [1] and in assay [2] was less than 1 µM in each case.
Consider `C#CCn1cnc2c(-c3cccc(O)c3)nc(N3CCOCC3)nc21` [Compound 53], for which the IC50 in assay [1] and in assay [2] was less than 1 µM each time.
As to `CS(=O)(=O)N1CCC(n2cnc3c(-c4cccc5[nH]ccc45)nc(N4CCOCC4)nc32)CC1` [Compound 111], the IC50 in assay [1] and in assay [2] was less than 1 µM in each case.
`CCC(C#N)n1cnc2c(-c3ccc(N)nc3)nc(N3CCOCC3)nc21` (centres unmarked) [Compound 137]: the IC50 in assay [1] was 1 to 5 µM; in assay [2] it was less than 1 µM.
The like results for `O=C(Cn1cnc2c(-c3cccc(O)c3)nc(N3CCOCC3)nc21)NC1CC1` [Compound 84] were, in that order, less than 1 µM and 1 to 5 µM.
Take `CCCC(=O)N1CCC(n2cnc3c(-c4cccc5[nH]ccc45)nc(N4CCOCC4)nc32)CC1` [Compound 93]: the IC50 in assay [1] and in assay [2] was less than 1 µM throughout.
`COCCn1cnc2c(-c3cccc4[nH]ccc34)nc(N3CCOCC3)nc21` [Compound 79]: the IC50 in assay [1] was less than 1 µM; in assay [2], 1 to 5 µM.
The corresponding values for `CCC(C)n1c(S(C)(=O)=O)nc2c(-c3cccc(O)c3)nc(N3CCOCC3)nc21` (centres unmarked) [Compound 130, 3-(9-sec-Butyl-8-methanesulfonyl-2-morpholin-4-yl-9H-purin-6-yl)-phenol] are less than 1 µM and less than 1 µM.
For the compound `CC(C)NC(=O)Cn1cnc2c(-c3cccc(O)c3)nc(N3CCOCC3)nc21` [Compound 83], the IC50 in assay [1] is less than 1 µM; in assay [2] it was 1 to 5 µM.
The like results for `CCC(C#N)n1cnc2c(-c3cccc4[nH]ccc34)nc(N3CCOCC3)nc21` (centres unmarked) [Compound 102] were, in that order, less than 1 µM and 1 to 5 µM.
Turning to `CCC(C)n1cnc2c(-c3cccc4[nH]ncc34)nc(N3CCOCC3)nc21` (centres unmarked) [Compound 109], the IC50 in assay [1] and in assay [2] was less than 1 µM in each case.
With `Fc1cccc(Cn2cnc3c(-c4ccc5[nH]ccc5c4)nc(N4CCOCC4)nc32)c1` [Compound 47], the 50% inhibitory concentration (IC50) in assay [1] is more than 5 µM; in assay [2], 1 to 5 µM.
The like results for `COCCn1cnc2c(-c3ccc4cc[nH]c4c3)nc(N3CCOCC3)nc21` [Compound 10, 6-(1H-Indol-6-yl)-9-(2-methoxy-ethyl)-2-morpholin-4-yl-9H-purine] were, in that order, more than 5 µM and 1 to 5 µM.
The like results for `COc1cccc(Cn2cnc3c(-c4cccc(O)c4)nc(N4CCOCC4)nc32)c1` [Compound 17] were, in that order, less than 1 µM and less than 1 µM.
The corresponding values for `c1cc2ccc(-c3nc(N4CCOCC4)nc4c3ncn4CC3CC3)cc2[nH]1` [Compound 21] are more than 5 µM and less than 1 µM.
As to `CC(C1CC1)n1cnc2c(-c3cccc4[nH]ccc34)nc(N3CCOCC3)nc21` (centres unmarked) [Compound 91], the half-maximal inhibitory concentration (IC50) in assay [1] and in assay [2] was less than 1 µM throughout.
Regarding `Oc1cccc(-c2nc(N3CCOCC3)nc3[nH]c(-c4cccs4)nc23)c1` [Compound 117], the IC50 is less than 1 µM in assay [1] and more than 5 µM in assay [2].
For `O=[N+]([O-])c1ccc(Cn2cnc3c(-c4cccc(O)c4)nc(N4CCOCC4)nc32)cc1` [Compound 19, 3-[2-Morpholin-4-yl-9-(4-nitro-benzyl)-9H-purin-6-yl]-phenol], the IC50 in assay [1] and in assay [2] was less than 1 µM in each case.
As to `COCC(C)n1cnc2c(-c3cccc4[nH]ccc34)nc(N3CCOCC3)nc21` (centres unmarked) [Compound 67], the IC50 in assay [1] and in assay [2] was less than 1 µM each time.
On to `CCC(C)n1c(-c2ccccc2)nc2c(-c3cccc(O)c3)nc(N3CCOCC3)nc21` (centres unmarked) [Compound 126], for which the IC50 in assay [1] and in assay [2] was less than 1 µM each time.
Turning to `CCCCN1CCC(n2cnc3c(-c4cccc(O)c4)nc(N4CCOCC4)nc32)CC1` [Compound 88], the IC50 in assay [1] and in assay [2] was less than 1 µM each time.
Take `COCCn1cnc2c(-c3cncc(F)c3)nc(N3CCOCC3)nc21` [Compound 140]: the IC50 was 1 to 5 µM in assay [1] and more than 5 µM in assay [2].
The corresponding values for `COCC(C)n1cnc2c(-c3cccc(O)c3)nc(N3CCOCC3)nc21` (centres unmarked) [Compound 68] are less than 1 µM and less than 1 µM.
The corresponding values for `CS(=O)(=O)Nc1cccc(Cn2cnc3c(-c4cccc(O)c4)nc(N4CCOCC4)nc32)c1` [Compound 55] are 1 to 5 µM and more than 5 µM.
The like results for `Oc1cccc(-c2nc(N3CCOCC3)nc3c2ncn3CCN2CCCC2)c1` [Compound 94, 3-(2-morpholino-9-(2(-pyrrolidin-1-yl)ethyl)-9H-purin-6yl)phenol] were, in that order, less than 1 µM and 1 to 5 µM.
In the case of `CS(=O)(=O)Nc1ccc(Cn2cnc3c(-c4cccc(O)c4)nc(N4CCOCC4)nc32)cc1` [Compound 42], the concentration for half-maximal inhibition (IC50) in assay [1] is less than 1 µM; in assay [2], 1 to 5 µM.
The like results for `CC(C)(C)OC(=O)N1CCC(n2cnc3c(-c4cccc5[nH]ccc45)nc(N4CCOCC4)nc32)C1` (centres unmarked) [Compound 62] were, in that order, less than 1 µM and 1 to 5 µM.
The corresponding values for `Oc1cccc(-c2nc(N3CCOCC3)nc3c2ncn3Cc2ccc(C(F)(F)F)cc2)c1` [Compound 30] are 1 to 5 µM and 1 to 5 µM.
The corresponding values for `CCC(C)n1cnc2c(-c3cccc(O)c3)nc(N3CCOCC3)nc21` (centres unmarked) [Compound 90] are less than 1 µM and less than 1 µM.
On to `Nc1ccc(-c2nc(N3CCOCC3)nc3c2ncn3Cc2ccccc2)cc1N` [Compound 38], for which the IC50 was more than 5 µM in assay [1] and 1 to 5 µM in assay [2].
The like results for `CC1CCC(n2cnc3c(-c4cccc(O)c4)nc(N4CCOCC4)nc32)CC1` (centres unmarked) [Compound 61] were, in that order, less than 1 µM and less than 1 µM.
The corresponding values for `N#CCn1cnc2c(-c3ccc(O)nc3)nc(N3CCOCC3)nc21` [Compound 139] are more than 5 µM and more than 5 µM.
The corresponding values for `CCC(C)n1c(NC(C)C)nc2c(-c3cccc(O)c3)nc(N3CCOCC3)nc21` (centres unmarked) [Compound 123, 3-(9-sec-Butyl-8-isopropylamino-2-morpholin-4-yl-9H-purin-6-yl)-phenol] are less than 1 µM and less than 1 µM.
Regarding `CC(c1ccccc1)n1cnc2c(-c3cccc4[nH]ccc34)nc(N3CCOCC3)nc21` (centres unmarked) [Compound 77], the IC50 was more than 5 µM in assay [1] and less than 1 µM in assay [2].
The like results for `CCc1nc2c(-c3cccc(O)c3)nc(N3CCOCC3)nc2n1C(C)CC` (centres unmarked) [Compound 112, 3-(9-sec-Butyl-8-ethyl-2-morpholin-4-yl-9H-purin-6-yl)-phenol] were, in that order, less than 1 µM and less than 1 µM.
The corresponding values for `Nc1cccc(-c2nc(N3CCOCC3)nc3c2ncn3Cc2ccccc2)c1` [Compound 29] are more than 5 µM and 1 to 5 µM.
The corresponding values for `C=CCCn1cnc2c(-c3ccc4cc[nH]c4c3)nc(N3CCOCC3)nc21` [Compound 23] are more than 5 µM and 1 to 5 µM.
Regarding `CC(C)n1cnc2c(-c3ccc(N)nc3)nc(N3CCOCC3)nc21` [Compound 135], the IC50 in assay [1] and in assay [2] was less than 1 µM in each case.
